Measurements reported in PubChem BioAssay (NCI).
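Where inhibition never reached the appropriate level, the endpoint shown equals the highest concentration tested. Otherwise, values were interpolated linearly from a five-concentration, 48-hour dose response in 96-well plates. GI50 marks 50% less growth. The concentration for full growth arrest is given as TGI.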

How the values were obtained:
Test in all cases: NCI anticancer screen, dose series, 48 h
OVCAR-3 ovarian = test system: OVCAR-3 ovarian
CCRF-CEM leukemia = test system: CCRF-CEM leukemia
U251 CNS = test system: U251 CNS
SN12C renal = test system: SN12C renal
RXF 393 renal = test system: RXF 393 renal
HS 578T breast = test system: HS 578T breast
NCI/ADR-RES ovarian = test system: NCI/ADR-RES ovarian
A498 renal = test system: A498 renal
DU-145 prostate = test system: DU-145 prostate
SK-MEL-5 melanoma = test system: SK-MEL-5 melanoma
MALME-3M melanoma = test system: MALME-3M melanoma
A549 NSCLC = test system: A549 NSCLC
M14 melanoma = test system: M14 melanoma
HOP-62 NSCLC = test system: HOP-62 NSCLC
MDA-MB-435 = test system: MDA-MB-435
COLO 205 colon = test system: COLO 205 colon
SK-MEL-28 melanoma = test system: SK-MEL-28 melanoma
ACHN renal = test system: ACHN renal
OVCAR-5 ovarian = test system: OVCAR-5 ovarian
SR leukemia = test system: SR leukemia
SF-539 CNS = test system: SF-539 CNS
EKVX NSCLC = test system: EKVX NSCLC
HCT-15 colon = test system: HCT-15 colon
SF-295 CNS = test system: SF-295 CNS
HOP-92 NSCLC = test system: HOP-92 NSCLC
TK-10 renal = test system: TK-10 renal
SW-620 colon = test system: SW-620 colon
SK-MEL-2 melanoma = test system: SK-MEL-2 melanoma
RPMI-8226 leukemia = test system: RPMI-8226 leukemia

CCOc1ccc(C(=O)Nc2ncc(Cc3ccc(F)cc3)s2)cc1
GI50 (OVCAR-3 ovarian): 162 nM | TGI (OVCAR-3 ovarian): > 22.2 µM | GI50 (CCRF-CEM leukemia): 108 nM | TGI (CCRF-CEM leukemia): > 52.7 µM | GI50 (U251 CNS): 230 nM | TGI (U251 CNS): > 62.6 µM | GI50 (SN12C renal): 345 nM | TGI (SN12C renal): > 100 µM | GI50 (RXF 393 renal): 151 nM | TGI (RXF 393 renal): 672 nM | GI50 (HS 578T breast): 399 nM | TGI (HS 578T breast): > 39.3 µM | GI50 (NCI/ADR-RES ovarian): 117 nM | TGI (NCI/ADR-RES ovarian): > 100 µM | GI50 (A498 renal): > 34 µM | TGI (A498 renal): > 90.5 µM | GI50 (DU-145 prostate): 387 nM | TGI (DU-145 prostate): > 100 µM | GI50 (SK-MEL-5 melanoma): 322 nM | TGI (SK-MEL-5 melanoma): > 100 µM | GI50 (MALME-3M melanoma): 1130 nM | TGI (MALME-3M melanoma): > 100 µM | GI50 (A549 NSCLC): 257 nM | TGI (A549 NSCLC): > 100 µM | GI50 (M14 melanoma): 94.1 nM | TGI (M14 melanoma): > 100 µM | GI50 (HOP-62 NSCLC): 309 nM | TGI (HOP-62 NSCLC): > 50 µM | GI50 (MDA-MB-435): 22.1 nM | TGI (MDA-MB-435): 55.1 nM | GI50 (COLO 205 colon): 164 nM | GI50 (SK-MEL-28 melanoma): 1230 nM | TGI (SK-MEL-28 melanoma): > 100 µM | GI50 (ACHN renal): 455 nM | TGI (ACHN renal): > 100 µM | GI50 (OVCAR-5 ovarian): 387 nM | TGI (OVCAR-5 ovarian): > 100 µM | GI50 (SR leukemia): 34.4 nM | TGI (SR leukemia): > 100 µM | GI50 (SF-539 CNS): 161 nM | TGI (SF-539 CNS): 2750 nM | GI50 (EKVX NSCLC): 347 nM | TGI (EKVX NSCLC): > 100 µM | GI50 (HCT-15 colon): 49.4 nM | TGI (HCT-15 colon): > 100 µM | GI50 (SF-295 CNS): 144 nM | TGI (SF-295 CNS): > 33 µM | GI50 (HOP-92 NSCLC): 8.75 µM | TGI (HOP-92 NSCLC): > 86.1 µM | GI50 (TK-10 renal): 29.3 µM | TGI (TK-10 renal): > 75.9 µM | GI50 (SW-620 colon): 77.8 nM | TGI (SW-620 colon): > 100 µM | GI50 (SK-MEL-2 melanoma): 117 nM | GI50 (RPMI-8226 leukemia): 157 nM | TGI (RPMI-8226 leukemia): > 100 µM
